In patent US10076539B2 (priority 2016, dated 2018):
Values after ≈ are worked out from the molar mass of the structure shown.

Columns and labels:
[1] = cited from earlier work; for solubility: 37° C.
[2] = cited from earlier work
[3] = tested on: gout attack
Source text: 2. Preparation of Embrocation • Take KOH16.8 g, dissolve in 1 liters of distilled water, and get a concentration of 0.3 mol/L.
They dripped a cotton swab into the embrocation (0.1 mol/L) prepared by themself and embrocated on the attack position.

[4] = tested on: high uric acid and gout; conditions: water injection for intravenous drip, high uric acid and gout sufferers
[5] = tested on: blood uric acid; conditions: applicant
Description: On December 3, they took a footbath in 45° C. soaking solution (0.01 mol/L) for an hour, and then went to test at Chaohu Hospital of Anhui Medical University.

[6] = tested on: blood uric acid; conditions: applicant; remark: listed apart in the source
Description: 2. Preparation of Oral Liquid • Take KOH0.12 g, dissolve in 1 liters of distilled water, and get a concentration of 0.0021 mol/L. Take orally for 50 ml per time and one time per day.
So they began to take oral use tests from January 2016. […] The oral concentration (mol/L) they had tried includes 0.001, 0.0018, 0.0021, 0.0025, 0.003, 0.005 and 0.008 in turn.

[7] = tested on: gout
Description: The solution can be also heated to 40-48° C. and then used for footbath. For acute gout attack, if the attack position is easy to soak, such as ankles, toe joints, hands and wrist joints, the solution can also be used to soak such positions. The solution should be embrocated on the attack positions if such positions are not convenient to soak, such as knee joints and elbow joints. […] Drip a cotton swab in the embrocation and embrocate on the attack positions, or drip a dressing in the embrocation and apply on the attack positions. It is very inconvenient to undress when applying topical drug in cold season, then oral drug is an option. […] Have 50 ml of the liquid before meals. For the sufferers of high blood uric acid and acute, intermittent and chronic gout, the embrocation, soak solution and oral liquid can be used separately or concurrently at the same time.

[8] = December 3, one footbath in 45° C. soaking solution (0.01 mol/L) for an hour
[9] = baseline, day after eating two chicken livers

O=c1[nH]c(=O)c2[nH]c(=O)[nH]c2[nH]1 [uric acid, 2,6,8-Trihydroxypurine]
solubility [1]: 0.5 mM (≈ 84.1 µg/mL)
dissociation constant (PKa), the 3rd nitrogen dissociation [2]: 10.3

O=c1[nH]c(=O)c2[nH]c(=O)[nH]c2[nH]1 [potassium urate]
solubility compared with uric acid and sodium urate [1]: much higher than uric acid and sodium urate

O=c1[nH]c(=O)c2[nH]c([O-])nc2[nH]1.[Na+] [sodium urate]
solubility [1]: 8.0 mM

[K+].[OH-] [KOH, potassium hydroxide]
time until pain was relieved and foot could touch the ground ([3]; embrocation 0.1 mol/L on first metatarsophalangeal joint, applicant, May 2008): about ten
time until gout symptoms disappeared ([3]; embrocation 0.1 mol/L, 2-3 times per day, applicant): three
effect on swelling and soreness (forerunner of gout), prevention of onset ([3]; embrocation, molar concentration of KOH solution 0.1, 0.2, 0.3 and 0.4, 2009-2013, applicant): all were effective
anticipated effect of intravenous drip [4]: immediate effect
blood uric acid after footbath [5, 8]: 486 μmol/LL
urine uric acid after footbath [5, 8]: 6.59 mmol/L
blood uric acid after footbath once a day ([5]; December 10, footbath once a day since December 3, soaking solution 0.01 mol/L): 389 µmol/L
drop of blood uric acid ([5]; December 10 versus 495 μmol/L before footbath): 21%
blood uric acid before footbath [5, 9]: 495 µmol/L
urine uric acid before footbath [5, 9]: 6.3 mmol/L
blood uric acid after oral use ([6]; April 2016, after oral KOH solution 23 times since January 2016): 351 µmol/L
discomfort / taste of oral liquid ([6]; oral liquid 0.001 mol/L-0.005 mol/L): brought no discomfort to the body
consecutive days of application until gout symptoms completely disappear ([7]; footbath, oral or embrocation): 2 to 3 days
time to relief of symptoms (pain and swelling during gout attack) ([7]; footbath, oral or embrocation): ten
corrosion of the skin ([7]; low concentration KOH): will not corrode the skin
side effects ([7]; low concentration KOH): no side effects
